Data reported in patent US20160318844A1, “PROSTACYCLIN COMPOUNDS, COMPOSITIONS AND METHODS OF USE THEREOF” (Insmed Incorporated, priority 2015, published 2016).

Tests used:
CHO-K1 cells = experiment: CHO-K1 cell proliferation assay (Presto Blue); conditions: for Effect on cell proliferation, CHO-K1 Cells: detectable cell inhibition: Table 9, unformulated alkyl esters, (0.195 μM-25 μM), 48 hour incubation
Description: CHO-K1 cells were harvested when the cell monolayer was 50-90% confluent (use passage 4-11). Media was aspirated out of the flask, and cells were rinsed with 2 mL of F12 media. Next, 1 mL of pre-warmed (37° C.) 0.25% trypsin-EDTA (Life Technologies, Cat#: 25300054) was added, and cells were dislodged from the flask by tapping it on the side. Complete growth media (F12 (Life Technologies, Cat #: 31765092)+10% FBS (Hyclone, Cat #: SH30071.03)+1× Pen-Strep (Life Technologies, cat #15140-122) was then added at a volume of 10 mL. Cells were centrifuged at 250×g for 5 minutes at room temperature, and the media was aspirated. The cell pellet was resuspended in 10 mL complete growth media. Cell number was determined using a hemacytometer. Cells were then seeded at 2000 cells per well of a 96-well plate in 100 μL of complete growth media. The plate was incubated overnight at 37° C. and 5% CO2 in a water-jacketed incubator.
The next day, 80 μL of fresh complete media was added to each well, and CHO-K1 cells were challenged with treprostinil compound and composition treatments. The working solutions were prepared at 10× concentration, and following 2 fold serial dilutions, 20 μL aliquots were added per well to arrive at a final 1× concentration. Following a 48 hour incubation at 37° C. and 5% CO2 in a water-jacketed incubator, the inhibitory effect on cell proliferation was determined. Plates were analyzed using 20 μL of Presto Blue reagent (Life Technologies, cat #: A13262) per well. The reagent was mixed, and plates were incubated for 1 hour at 37° C. and 5% CO2 in a waterjacketed incubator. Plates were read using either a CytoFluor Series 4000 (PerSeptive BioSystems) or Synergy Neo microplate reader (BioTek) with emission λ: 590 nm and excitation λ: 560 nm. […]
CHO-K1 cells were challenged with treprostinil alkyl esters, i.e., TR compounds of Formula (A), having the following R2 groups: […]
C2, C3, C4, C5, C6, C8, C10 or C12 straight chain alkyl, at dosages ranging from 0.098 μM to 25 μM. Following a 48 hour incubation period, the inhibitory effect on cell proliferation was determined.
Following a 72 hour incubation period, the inhibitory effect on cell proliferation was determined. Following a 48 hour incubation period, the inhibitory effect on cell proliferation was determined. […]

beagle dogs = experiment: Clinical signs in dogs after inhalation; conditions: targeted dose of 18 μg/kg
Description: Dosimetry was performed in propofol-anesthetized dogs in which nebulized drugs were introduced into a mixing chamber interposed on the inspiratory limb of a canine respirator. Technical trials were performed before each experiment to measure the concentration of drug (μg/L) delivered for each breath. The inhaled drug dose (μg/kg) was calculated using the formula: Inhaled Drug Dose (μg/kg)=Drug Conc. (μg/L)×Minute Ventilation (L/min.)×Time (min.)/Body Weight (kg). […] Clinical signs were monitored over this 72 hr. period.
Dosimetry was performed in propofol-anesthetized, artificially ventilated dogs in which nebulized drugs were introduced into a mixing chamber interposed on the inspiratory limb of the respirator. Technical trials were performed before each experiment measuring the concentration of drug (μg/L) per breath, minute ventilation and time required to achieve a targeted pulmonary dose. […] Clinical signs (cough, rapid shallow breathing, emesis and pale gums) were also monitored.

physchem = conditions: organic solvent or mixture, thermodynamic from solid
Description: Selected treprostinil derivatives were evaluated for the use in a metered dose inhaler (MDI).
5 mg of each treprostinil compound was added in a glass bottle. Specific amount of ethanol was added by weight. An MDI valve was crimped to each bottle, and HFA propellant added through the valve to the total volume of 5 mL. Compounds were allowed to dissolve for 24 hours at room temperature. The formulations were assessed visually for solubility. The goal was to estimate the minimum ethanol concentration required to solubilize each compound in propellant.
Soluble samples presented as clear and colorless solutions. […] Non-soluble samples had white precipitate or crystals formed. Ethanol was added as a solubility aid.

SMILES	Effect on cell proliferation, CHO-K1 Cells: detectable cell inhibition (CHO-K1 cells)	inhibition of CHO-K1 cell proliferation (CHO-K1 cells; unformulated alkyl esters, highest concentration, 48 hour)	adverse clinical signs (beagle dogs)	solubility at 24 h (physchem; Solubility in HFA-134a with added ethanol) [µg/mL]	solubility at 24 h (physchem; Solubility in HFA-227 with added ethanol) [µg/mL]
CCCCCCCCOC(=O)COc1cccc2c1C[C@H]1C[C@@H](O)[C@H](CC[C@@H](O)CCCCC)[C@H]1C2 [Compound C8-TR, treprostinil octyl ester]	25 µM	showed inhibition of cell proliferation	–	–	–
CCCCCCCCCCCCOC(=O)COc1cccc2c1C[C@H]1C[C@@H](O)[C@H](CC[C@@H](O)CCCCC)[C@H]1C2 [Compound C12-TR, dodecyl-treprostinil]	No detectable cell inhibition	–	Adverse clinical signs were seen	> 1000	> 1000
